Where two headings read alike, the source gives them in different places. One block for each compound: values may come before it.
Key:
[1] = Polymorphic stability of brexpiprazole dihydrate during wet ball milling, checked by PXRD; type: physicochemical; details: ball mill 25 Hz, 0.2 mL water, 10° C.
Procedure: The powder X-ray diffractogram was obtained with a PANalytical X'Pert PRO diffractometer equipped with a theta/theta coupled goniometer in transmission geometry, Cu-Kalpha1,2 radiation (wavelength 0.15419 nm) with a focusing mirror and a solid state PIXcel detector. The diffractogram was recorded at a tube voltage of 45 kV and a tube current of 40 mA, applying a stepsize of 0.013° 2-Theta with 40 s per step (255 channels) in the angular range of 2° to 40° 2-Theta at ambient conditions. A typical precision of the 2-Theta values is in the range of ±0.2° 2-Theta. […]
500 mg brexpiprazole dihydrate from comparative example 1 were milled in the presence of 0.2 mL water at 10° C. with a Retsch MM301 ball mill at 25 Hz for 5 min (1.5 ml jacket and 1 steel ball of 5 mm diameter). The obtained micronized crystalline material was analysed by PXRD and PSD. […] (Determined by the laser diffraction method in the context of a circulating aqueous suspension as the percent volume at each particle size and measured by a Malvern Mastersizer 3000 laser diffraction analyzer.)
500 mg brexpiprazole dihydrate from comparative example 1 were milled in the presence of 0.2 mL water at 10° C. with a Retsch MM301 ball mill at 25 Hz for 15 min (1.5 ml jacket and 1 steel ball of 5 mm diameter). The obtained micronized crystalline material was analysed by PXRD and PSD. […]

[2] = Particle size distribution by laser diffraction (Malvern Mastersizer 3000, circulating aqueous suspension); type: physicochemical; details: volume distribution
Procedure: For the purpose of this invention, particle size distribution is determined as the percent volume at each particle size and measured by a laser diffraction method in the context of a circulating aqueous suspension. A Malvern Mastersizer 3000 laser diffraction analyzer equipped with a Hydro EV measurement cell was used. About 50 mg of sample were filled into a 15 ml glass test tube. The sample was wetted with two drops of Tween 80 and vortexed. Then the thoroughly wetted sample was dispersed in about 7 mL of UHQ-water by vortexing until the particles were dispersed. The suspension was treated for 7 minutes in an ultrasonification bath at RT (Elma S50H). The well dispersed suspension was then measured in water by adding a sample from the center of the test tube containing the well dispersed suspension to a water-filled dispersion unit prefilled with 70 mL of water. The sample in the 70 mL dispersion unit was kept under stirring at 2000 rpm. More sample from the test tube was added, until a targeted obscuration range of 10-25 percent was achieved. The Malvern Mastersizer was operated using the following parameters:
Measurement occurred after an optical alignment of the laser was done and after a background measurement was run. A measurement sequence consisted of eight individual measurements for which the mean value was represented as a histogram.
d90 as used herein means that 90% of the particles (based on volume) are smaller than or equal to the indicated size.
d50 as used herein means that 50% of the particles (based on volume) are smaller than or equal to the indicated size.
d10 as used herein means that 10% of the particles (based on volume) are smaller than or equal to the indicated size.
Particle size distribution was measured with a Malvern Mastersizer 3000 laser diffraction analyzer equipped with a Hydro EV measurement cell. About 50 mg of sample were given into a test tube. The sample was wetted with two drops of Tween 80 and dispersed in about 7 ml of water on a Vortexer. The suspension was treated for 7 minutes in a ultrasonification bath (Elma S50H). The well dispersed suspension was afterwards measured in water at a targeted obscuration range of 10-25 percent while circulating the aqueous suspension and stirring the suspension reservoir at 2000 rpm after a waiting period of three minutes. A fraunhofer optical model was utilized to deconvolute the sample scattering patterns to yield the resultant particle size distributions. Analysis model: General purpose/normal sensitivity. Measuring/background time: about 10 sec

[3] = Solubility in water at 25° C.; type: physicochemical
From the text: The brexpiprazole dihydrate can then be added to an aqueous medium in which it is hardly soluble to form a suspension.

[4] = rats, intramuscular injection, 56 days after the injection, cited from earlier work

particle size distribution d10 [2]: 1.35 μm
particle size distribution d50 [2]: 8.24 μm
particle size distribution d90 [2]: 21 μm
Structure (SMILES): O=c1ccc2ccc(OCCCCN3CCN(c4cccc5sccc45)CC3)cc2[nH]1 [Example 1]
transformation of dihydrate to anhydrate form I during micronization (PXRD peaks at 6.8° and 17.4°) ([1]; 5 min): had not transformed to brexpiprazole anhydrate form I

particle size distribution d10 [2]: 1.15 μm
particle size distribution d50 [2]: 7.04 μm
particle size distribution d90 [2]: 19 μm
Structure (SMILES): O=c1ccc2ccc(OCCCCN3CCN(c4cccc5sccc45)CC3)cc2[nH]1 [Example 2]
transformation of dihydrate to anhydrate form I during micronization (PXRD peaks at 6.8°, 10.0° and 17.4°) ([1]; 15 min): had not transformed to brexpiprazole anhydrate form I

solubility at 25° C. in water [3]: 18 µg/mL
Structure (SMILES): O=c1ccc2ccc(OCCCCN3CCN(c4cccc5sccc45)CC3)cc2[nH]1 [brexpiprazole anhydrate]
crystals detectable at the injection site [4]: no longer detectable

Structure (SMILES): O=c1ccc2ccc(OCCCCN3CCN(c4cccc5sccc45)CC3)cc2[nH]1 [brexpiprazole dihydrate, 7-[4-[4-(1-Benzothiophen-4-yl)piperazin-1-yl]butoxy]quinolin-2(1H)-one dihydrate]
particle size distribution d90 ([2]; listed as Reference Example 1, dihydrate): above 25 μm
solubility ([3]; 25 °C): 10 µg/mL
crystals detectable at the injection site ([4]; dihydrate): can still be detected
